Results published in the supplement of paper PMC10307832.

What was measured:
Assay in all cases: relative viability (nuclei count vs DMSO), 5 days (fraction); higher = more cells survive
Ibrutinib + Pemetrexed = compound: C=CC(=O)N1CCC[C@@H](n2nc(-c3ccc(Oc4ccccc4)cc3)c3c(N)ncnc32)C1 [Ibrutinib] + Nc1nc2[nH]cc(CCc3ccc(C(=O)N[C@@H](CCC(=O)O)C(=O)O)cc3)c2c(=O)[nH]1 [Pemetrexed] (partner 0.2 µM)
Procedure, shortened: (§1)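 Values are medians from duplicate plates. Each reflects relative viability, defined as the nuclei count of treated wells over that of vehicle wells. Lung cancer cell lines in 1536-well plates were pin-tool dosed one day after seeding with one drug alone or with a fixed anchor-drug dose plus five library-drug doses (not always all listed) in √10 steps, then fixed, stained and imaged at 4× after 5 days.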

BMX-IN-1 + AZD7762 = compound: C=CC(=O)Nc1cc(-n2c(=O)ccc3cnc4ccc(-c5ccc(NS(C)(=O)=O)cc5)cc4c32)ccc1C [BMX-IN-1] + NC(=O)Nc1cc(-c2cccc(F)c2)sc1C(=O)N[C@H]1CCCNC1 [AZD7762] (partner 0.2 µM)
Procedure, shortened: as §1

BMX-IN-1 + OSI-027 = compound: C=CC(=O)Nc1cc(-n2c(=O)ccc3cnc4ccc(-c5ccc(NS(C)(=O)=O)cc5)cc4c32)ccc1C [BMX-IN-1] + COc1cccc2cc(-c3nc([C@H]4CC[C@H](C(=O)O)CC4)n4ncnc(N)c34)[nH]c12 [OSI-027] (partner 0.5 µM)
Procedure, shortened: as §1

BMX-IN-1 + Luminespib = compound: C=CC(=O)Nc1cc(-n2c(=O)ccc3cnc4ccc(-c5ccc(NS(C)(=O)=O)cc5)cc4c32)ccc1C [BMX-IN-1] + CCNC(=O)c1noc(-c2cc(C(C)C)c(O)cc2O)c1-c1ccc(CN2CCOCC2)cc1 [Luminespib] (partner 0.01 µM)
Procedure, shortened: as §1

| Cell Line | relative viability (Ibrutinib + Pemetrexed; first compound 0.005 µM) | relative viability (Ibrutinib + Pemetrexed; first compound 0.01581 µM) | relative viability (Ibrutinib + Pemetrexed; first compound 0.05 µM) | relative viability (Ibrutinib + Pemetrexed; first compound 0.1581 µM) | relative viability (Ibrutinib + Pemetrexed; first compound 0.5 µM) | relative viability (BMX-IN-1 + AZD7762; first compound 0.02 µM) | relative viability (BMX-IN-1 + AZD7762; first compound 0.2 µM) | relative viability (BMX-IN-1 + AZD7762; first compound 0.6325 µM) | relative viability (BMX-IN-1 + AZD7762; first compound 2 µM) | relative viability (BMX-IN-1 + OSI-027; first compound 0.02 µM) | relative viability (BMX-IN-1 + OSI-027; first compound 0.2 µM) | relative viability (BMX-IN-1 + OSI-027; first compound 0.6325 µM) | relative viability (BMX-IN-1 + OSI-027; first compound 2 µM) | relative viability (BMX-IN-1 + Luminespib; first compound 0.02 µM) | relative viability (BMX-IN-1 + Luminespib; first compound 0.2 µM) | relative viability (BMX-IN-1 + Luminespib; first compound 0.6325 µM) | relative viability (BMX-IN-1 + Luminespib; first compound 2 µM) |
| --- | --- | --- | --- | --- | --- | --- | --- | --- | --- | --- | --- | --- | --- | --- | --- | --- | --- |
| 201T | 0.296 | 0.301 | 0.363 | 0.363 | 0.507 | 0.728 | 0.63 | 0.662 | 0.56 | 0.805 | 0.985 | 0.798 | 0.824 | 1.07 | 1.1 | 1.09 | 0.98 |
| A-427 | 0.986 | 0.995 | 0.961 |  | 1.02 | 0.796 | 1.14 | 0.84 | 0.806 | 0.448 | 0.417 | 0.501 | 0.461 | 1.13 | 0.844 | 1.01 | 1.04 |
| ABC-1 |  |  |  |  |  | 0.761 | 0.848 | 0.82 | 0.868 | 0.504 | 0.491 | 0.655 | 0.412 | 0.586 | 0.571 | 0.359 | 0.322 |
| BEN | 0.489 | 0.757 | 0.637 | 0.469 | 0.785 | 0.747 | 0.706 | 0.69 | 0.707 | 0.319 | 0.282 | 0.294 | 0.31 | 0.417 | 0.332 | 0.328 | 0.364 |
| CAL-12T | 1.26 | 1.19 | 1.12 | 1.26 | 1.27 | 0.665 | 0.76 | 0.647 | 0.613 | 0.712 | 0.665 | 0.659 | 0.679 | 0.578 | 0.483 | 0.392 | 0.712 |
| COR-L23 | 0.211 | 0.179 | 0.204 | 0.198 | 0.235 |  |  |  |  | 1.01 | 0.945 | 1.01 | 0.754 | 0.807 | 0.782 | 1.07 | 0.548 |
| COR-L 105 | 0.778 | 1.16 | 0.855 | 1.06 | 0.692 |  |  |  |  | 0.817 | 0.668 | 0.814 | 0.586 | 0.753 | 0.693 | 0.928 | 0.706 |
| ChaGo-K-1 | 0.254 | 0.263 | 0.264 | 0.261 | 0.271 | 1.02 | 1.02 | 0.885 | 0.907 | 0.731 | 0.635 | 0.624 | 0.786 | 0.665 | 0.708 | 0.536 | 0.778 |
| EKVX | 0.33 | 0.419 | 0.359 | 0.336 | 0.222 | 1.02 | 0.81 | 0.843 | 0.723 | 0.848 | 0.689 | 0.783 | 0.663 | 0.945 | 0.835 | 0.85 | 0.857 |
| EMC-BAC-2 | 0.527 | 0.449 | 0.541 |  | 0.714 | 1.32 | 1.31 | 1.1 | 1.14 | 0.363 | 0.363 | 0.421 | 0.403 | 1.36 | 1.33 | 1.4 | 1.1 |
| EPLC-272H | 0.317 | 0.325 | 0.412 | 0.268 | 0.344 | 0.231 | 0.217 | 0.476 | 0.202 | 0.262 | 0.261 | 0.323 | 0.314 | 0.208 | 0.223 | 0.242 | 0.247 |
| H3255 | 0.511 | 0.553 | 0.456 | 0.557 | 0.407 | 0.93 | 0.866 | 1.05 | 0.874 | 0.635 | 0.658 | 0.578 | 0.518 | 0.851 | 0.907 | 1.02 | 0.927 |
| HARA | 0.243 | 0.22 | 0.249 | 0.207 | 0.242 | 0.47 | 0.454 | 0.26 | 0.322 | 0.403 | 0.544 | 0.562 | 0.457 | 1.01 | 0.207 | 0.683 | 0.682 |
| HCC-15 | 0.238 | 0.223 | 0.238 | 0.235 | 0.322 | 0.591 | 1.24 | 1.35 | 1.29 | 0.801 | 0.708 | 0.698 | 0.583 | 0.571 | 0.363 | 0.297 | 0.369 |
| HCC-44 | 0.711 | 0.669 | 0.624 | 0.64 | 0.987 | 0.989 | 0.941 | 1.01 | 1.11 | 0.617 | 0.515 | 0.56 | 0.474 | 1.29 | 1.27 | 0.821 | 1.04 |
| HCC-78 |  | 0.84 | 0.892 | 0.879 | 0.93 | 0.662 | 0.64 | 0.587 | 0.726 | 0.336 | 0.372 | 0.371 | 0.376 |  |  |  |  |
| HCC-366 | 0.259 | 0.247 | 0.307 | 0.241 | 0.704 | 0.38 | 0.417 | 0.416 | 0.343 | 1.06 | 1.14 | 1.13 | 1.12 |  |  |  |  |
